≈ marks a conversion by molar mass, not a printed value. Where two headings read alike, the source gives them in different places.
How the values were obtained:
Assay in all cases: MIC, agar dilution, multipoint inoculator
S. aureus = assay type: cell-based, Staphylococcus aureus; conditions: upper value of MIC reading
Method: (§1) This activity was measured using a multipoint inoculator method as follows. The MIC for each compound was measured using an agar dilution method (Onda, H., et al., Int. J. Antimicrob. Agents. 18, 263 (2001)) (Mueller Hinton agar) by means of a multipoint inoculator delivering 10^4 colony forming units per spot.

MRSA = assay type: cell-based, methicillin-resistant Staphylococcus aureus
Method: as §1
‘Staph’ refers to the reference strain of S. aureus (NCTC 6571). A tick in the MRSA column refers to a positive zone against MRSA strain 96-7474, and the MIC range (in μg/ml) which follows is that found against a panel of ten MRSA strains. Where MIC values are given for MRSA, these are stated as a range of values, as testing was carried out on a panel of clinical isolates.

S. haemolyticus = assay type: cell-based; conditions: S. haemolyticus Isolate 1, upper value of MIC reading
Method: as §1

E. faecalis = assay type: cell-based; conditions: upper value of MIC reading
Method: as §1

S. epidemisis = assay type: cell-based, Staphylococcus epidermidis; conditions: upper value of MIC reading
Method: as §1

E. faecium = assay type: cell-based, Enterococcus faecium; conditions: Enterococcus faecium, upper value of MIC reading, read-out: MIC
Method: as §1

[1] = MRSA Isolate 1, upper value of MIC reading, in µg/mL
[2] = MRSA Isolate 2, upper value of MIC reading, in µg/mL
[3] = MRSA Isolate 3, upper value of MIC reading, in µg/mL
[4] = MRSA Isolate 4, upper value of MIC reading, in µg/mL
[5] = MRSA Isolate 5, upper value of MIC reading, in µg/mL
[6] = MRSA Isolate 6, upper value of MIC reading, in µg/mL
[7] = MRSA Isolate 7, upper value of MIC reading, in µg/mL
[8] = MRSA Isolate 8, upper value of MIC reading, in µg/mL
[9] = MRSA Isolate 9, upper value of MIC reading, in µg/mL
[10] = panel of ten MRSA strains (clinical isolates)
[11] = Staphylococcus aureus, 18 h, S. aureus Cowan 1, read-out: MIC
[12] = Staphylococcus aureus, NCTC6571, 18 h, S. aureus NCTC 6571, read-out: MIC
[13] = Staphylococcus aureus, NCTC10788, 18 h, S. aureus NCTC 10788, read-out: MIC
[14] = Staphylococcus aureus, 18 h, MRSA Isolate 1, upper value of MIC reading, read-out: MIC
[15] = Staphylococcus aureus, 18 h, MRSA Isolate 2, upper value of MIC reading, read-out: MIC
[16] = Staphylococcus aureus, 18 h, MRSA Isolate 3, upper value of MIC reading, read-out: MIC
[17] = Staphylococcus aureus, 18 h, MRSA Isolate 4, upper value of MIC reading, read-out: MIC
[18] = Staphylococcus aureus, 18 h, MRSA Isolate 5, upper value of MIC reading, read-out: MIC
[19] = Staphylococcus aureus, 18 h, MRSA Isolate 6, upper value of MIC reading, read-out: MIC
[20] = Staphylococcus aureus, 18 h, MRSA Isolate 7, upper value of MIC reading, read-out: MIC
[21] = Staphylococcus aureus, 18 h, MRSA Isolate 8, upper value of MIC reading, read-out: MIC
[22] = Staphylococcus aureus, 18 h, MRSA Isolate 9, upper value of MIC reading, read-out: MIC
[23] = Staphylococcus aureus, 18 h, MRSA Isolate 10, upper value of MIC reading, read-out: MIC
[24] = Staphylococcus aureus, MRSA, 18 h, panel of ten MRSA strains (clinical isolates), read-out: MRSA MIC range
[25] = Staphylococcus haemolyticus, 18 h, read-out: MIC
[26] = Staphylococcus epidermidis, 18 h, S. epidemisis Isolate 1, read-out: MIC
[27] = Staphylococcus epidermidis, NCTC11047, 18 h, S. epidemisis NCTC 11047, read-out: MIC

SMILES: NC(=NN=Cc1ccc(O)c(O)c1O)c1cnccn1 [PZcb]
- MIC (S. aureus; S. aureus Cowan 1): 256 µg/mL (≈ 937 µM)
- MIC (S. aureus; S. aureus NCTC 6571): 256 µg/mL (≈ 937 µM)
- MIC (S. aureus; S. aureus NCTC 10788): 256 µg/mL (≈ 937 µM)
- MIC (MRSA; [1]): 256
- MIC (MRSA; [2]): 256
- MIC (MRSA; [3]): 256
- MIC (MRSA; [4]): 256
- MIC (MRSA; [5]): 256
- MIC (MRSA; [6]): 256
- MIC (MRSA; [7]): 256
- MIC (MRSA; [8]): 256
- MIC (MRSA; [9]): 256
- MIC (MRSA; MRSA Isolate 10, upper value of MIC reading, in µg/mL): 256
- MRSA MIC range (MRSA; [10]): 128 to 256 µg/mL
- MIC (S. haemolyticus): 256 µg/mL (≈ 937 µM)
- MIC (E. faecalis; E. faecalis Isolate 2): 256 µg/mL (≈ 937 µM)
- MIC (E. faecalis; E. faecalis Isolate 3): 256 µg/mL (≈ 937 µM)
- MIC (S. epidemisis; S. epidemisis NCTC 11047): 256 µg/mL (≈ 937 µM)

SMILES: CCc1ccccc1C=NN=C(N)c1ccccn1 [Compound 2PYai]
- MRSA MIC range (MRSA; [10]): 128 to 256 µg/mL

SMILES: CC(C)(C)[Si](C)(C)Oc1ccccc1/C=N/N=C(\N)c1cnccn1 [PZeg]
- MRSA MIC range (MRSA; [10]): > 256 µg/mL

SMILES: N/C(=N\N=C\c1ccccc1Sc1ccc(Cl)cc1)c1ccncc1 [Compound 4PYeh, N^1-[2-(4-chlorothiophenyl)benzylidene]-pyridine-4-carboxamidrazone]
- MIC (S. aureus; [11]): 8 µg/mL (≈ 21.8 µM)
- MIC (S. aureus; [12]): 128 µg/mL (≈ 349 µM)
- MIC (S. aureus; [13]): 16 µg/mL (≈ 43.6 µM)
- MIC (MRSA; [14]): 16 µg/mL (≈ 43.6 µM)
- MIC (MRSA; [15]): 16 µg/mL (≈ 43.6 µM)
- MIC (MRSA; [16]): 16 µg/mL (≈ 43.6 µM)
- MIC (MRSA; [17]): 16 µg/mL (≈ 43.6 µM)
- MIC (MRSA; [18]): 16 µg/mL (≈ 43.6 µM)
- MIC (MRSA; [19]): 16 µg/mL (≈ 43.6 µM)
- MIC (MRSA; [20]): 64 µg/mL (≈ 174 µM)
- MIC (MRSA; [21]): 32 µg/mL (≈ 87.2 µM)
- MIC (MRSA; [22]): 16 µg/mL (≈ 43.6 µM)
- MIC (MRSA; [23]): 16 µg/mL (≈ 43.6 µM)
- MIC (MRSA; [24]): 8 to 64 µg/mL (≈ 21.8 to 174 µM)
- MIC (S. haemolyticus; [25]): 256 µg/mL (≈ 698 µM)
- MIC (S. epidemisis; [26]): 256 µg/mL (≈ 698 µM)
- MIC (S. epidemisis; [27]): 256 µg/mL (≈ 698 µM)

SMILES: Cc1cccc(C=NN=C(N)c2ccccn2)c1 [Compound 2PYaj]
- MRSA MIC range (MRSA; [10]): 128 to 256 µg/mL

SMILES: NC(=NN=Cc1c(O)ccc2ccccc12)c1ccccn1 [Compound 2PYdb]
- MIC (S. aureus; S. aureus NCTC 6571): > 256 µg/mL
- MIC (MRSA; [3]): >256
- MRSA MIC range (MRSA; [10]): > 256 µg/mL

SMILES: NC(=NN=Cc1cc([N+](=O)[O-])ccc1O)c1ccncc1 [Compound 4PYcj]
- MRSA MIC range (MRSA; [10]): 20 to 30 µg/mL

SMILES: CN(C)c1ccc(C=NN=C(N)c2ccccn2)cc1 [Compound 2PYdq]
- MRSA MIC range (MRSA; [10]): 128 to 256 µg/mL

SMILES: CCC(C)(C)c1ccc(/C=N/N=C(\N)c2ccncc2)cc1 [Compound 4PYaf, N^1-[4-(1,1-dimethylpropyl)benzylidene]-pyridine-4-carboxamidrazone]
- MIC (S. aureus; [11]): 64 µg/mL (≈ 217 µM)
- MIC (S. aureus; [12]): 64 µg/mL (≈ 217 µM)
- MIC (S. aureus; [13]): 64 µg/mL (≈ 217 µM)
- MIC (MRSA; [14]): 64 µg/mL (≈ 217 µM)
- MIC (MRSA; [15]): 64 µg/mL (≈ 217 µM)
- MIC (MRSA; [16]): 64 µg/mL (≈ 217 µM)
- MIC (MRSA; [17]): 64 µg/mL (≈ 217 µM)
- MIC (MRSA; [18]): 64 µg/mL (≈ 217 µM)
- MIC (MRSA; [19]): 64 µg/mL (≈ 217 µM)
- MIC (MRSA; [20]): 64 µg/mL (≈ 217 µM)
- MIC (MRSA; [21]): 64 µg/mL (≈ 217 µM)
- MIC (MRSA; [22]): 64 µg/mL (≈ 217 µM)
- MIC (MRSA; [23]): 64 µg/mL (≈ 217 µM)
- MIC (MRSA; [24]): 32 to 64 µg/mL (≈ 109 to 217 µM)
- MIC (S. haemolyticus; [25]): 64 µg/mL (≈ 217 µM)
- MIC (E. faecalis; Enterococcus faecalis, 18 h, E. faecalis EBH1, read-out: MIC): 64 µg/mL (≈ 217 µM)
- MIC (E. faecalis; Enterococcus faecalis, 18 h, E. faecalis Isolate 1, read-out: MIC): 64 µg/mL (≈ 217 µM)
- MIC (E. faecalis; Enterococcus faecalis, 18 h, E. faecalis Isolate 2, read-out: MIC): 64 µg/mL (≈ 217 µM)
- MIC (E. faecalis; Enterococcus faecalis, 18 h, E. faecalis Isolate 3, read-out: MIC): 64 µg/mL (≈ 217 µM)
- MIC (E. faecalis; Enterococcus faecalis, 18 h, E. faecalis Isolate 4, read-out: MIC): 128 µg/mL (≈ 435 µM)
- MIC (E. faecalis; Enterococcus faecalis, 18 h, E. faecalis Isolate 5, read-out: MIC): 128 µg/mL (≈ 435 µM)
- MIC (E. faecalis; Enterococcus faecalis, NCTC5957, 18 h, E. faecalis NCTC 5957, read-out: MIC): 64 µg/mL (≈ 217 µM)
- MIC (S. epidemisis; [26]): 64 µg/mL (≈ 217 µM)
- MIC (S. epidemisis; [27]): 64 µg/mL (≈ 217 µM)
- MIC (E. faecium; 18 h, E. faecium ACTCC 10541): 64 µg/mL (≈ 217 µM)
- MIC (E. faecium; NCTC7171, 18 h, E. faecium NCTC 7171): 64 µg/mL (≈ 217 µM)

SMILES: COc1ccc(C=NNc2ccccn2)c(O)c1 [HDcf]
- MRSA MIC range (MRSA; [10]): 20 to 30 µg/mL

SMILES: CC(C)(C)c1cc(C=NN=C(N)c2ccncc2)cc(C(C)(C)C)c1O [Compound 4PYcr]
- MIC (S. aureus; S. aureus NCTC 6571): > 256 µg/mL
- MIC (MRSA; [3]): >256
- MRSA MIC range (MRSA; [10]): > 256 µg/mL

SMILES: O=Cc1cc(Br)cc([N+](=O)[O-])c1O [cl]
- MIC (S. aureus; S. aureus Cowan 1): 32 µg/mL (≈ 130 µM)
- MIC (S. aureus; S. aureus NCTC 6571): 16 µg/mL (≈ 65 µM)
- MIC (S. aureus; S. aureus NCTC 10788): 16 µg/mL (≈ 65 µM)
- MIC (MRSA; [1]): 16
- MIC (MRSA; [2]): 16
- MIC (MRSA; [3]): 32
- MIC (MRSA; [4]): 16
- MIC (MRSA; [5]): 16
- MIC (MRSA; [6]): 32
- MIC (MRSA; [7]): 32
- MIC (MRSA; [8]): 32
- MIC (MRSA; [9]): 32
